Data reported in patent US11724999B2, “Inhibitors of RAS-effector protein interactions” (Oxford University Innovation Limited, priority 2018, dated 2023).

Key:
[1] = system: H358 cells (ATCC CRL-5807); experiment: Cell viability assay (CellTiter-Glo), H358 cells; assay type: cell-based; conditions: Homo sapiens, NCI-H358, 48 h incubation, first value of the cell, read-out: Cell Viability (μM) H358 (concentration that decreases cell viability by 50%)
Procedure: (§1) Cells (A549 ATCC CCL-185) are cultured in Dulbecco's Modified Eagle's Medium plus 10% foetal calf serum and 2 mM L-glutamine at 37° C., 5% CO2. Cells are plated onto white clear bottom 96-well plates (5000 cells/well in 200 μl media) and left to adhere overnight at 37° C., 5% CO2. Next day, test compound (1 μl at 200× concentration in 100% DMSO) is added to give final test compound concentration 1× in 0.5% DMSO. After 48 h of incubation at 37° C., 5% CO2, 20 μl CellTiter-Glo reagent (Promega G7572) is added into each well. Plates are incubated at room temperature with shaking for 30 min and then luminescence is read using a PheraStar plate reader. The concentration of compounds that decrease cell viability by 50% is calculated from dose response curves generated using Dotmatics data analysis software.
In the H358 cell assay, cells (ATCC CRL-5807) are cultured in RPM-1640 medium plus 10% foetal calf serum and 2 mM L-glutamine at 37° C., 5% CO2.

[2] = molecular target: T1, GST-human KRas166 (G12V) GPPNHP (Homo sapiens, UniProt P01116, G12V); experiment: KRas small-molecule screening by SPR (BIACORE T200); assay type: binding; conditions: compound at final concentration of 100 uM; immobilised GST-KRAS166 (G12V) GPPNHP, GST reference channel
T1 construct: made in house; host or cells: E. coli C41(DE3)
Procedure: For SPR assays pGEX-KRAS(G12V) plasmid was transformed into E. coli C41(DE3). Bacterial cells were cultured at 37° C. to an OD600 of 0.6 and induced with IPTG (final 0.1 mM) at 18° C. overnight. The GST fusion proteins were extracted from bacteria pellets after cell disruption in 140 mM NaCl, 2.7 mM KCl, […], 1.8 mM KH2PO4, 1 mM EDTA, 2 mM MgCl2 pH 7.4 and purified by glutathione-sepharose column chromatography (GE Healthcare), eluting with 50 mM Tris-HCl pH8.0, 10 mM reduced glutathione, 1 mM DTT, 2 mM MgC2. The eluted proteins were dialysed against 50 mM Tris-HCl pH8.0, 1 mM DTT, 2 mM MgCl2 and concentrated to 10 mg/ml using a Biomax-30 […]-15 centrifugal filter device (Millipore). Purified KRAS protein was loaded with GPPNHP as described elsewhere (Pacold et al., 2000). Loaded protein was then purified by gel filtration on a HiLoad Superdex-75 HR column (GE Healthcare) in 1×PBS pH7.4, 5 mM MgCl2 and concentrated for storage.
To a previously immobilized CM5 chip (GE Healthcare BR-1005-30) with anti GST antibody via amine coupling method, GST in channel 1 and GST-human KRas166 (G12V) GPPNHP in channel 2 were immobilised. GST was immobilised between 2,000 and 5,000 Response units. KRAS166 (G12V) was immobilized between 10,000 to 15,000 Response Units.
In a 96 well plate, compounds were diluted in […], 5 mM MgCl2 and 5% DMSO Buffer to a final concentration of 100 uM. DCAI was used as positive control. Experiment also included a solvent correction curve for 5% DMSO. Screening and evaluation of the protein immobilization and the compounds screening was done accordingly to the BIACORE T200 control and evaluation software.
Protein immobilisation: 10,000 RU; average fragment 300 Da in size. Rmax=(MWA/MWL)×RL×SM MWA is the molecular weight of the analyte in Da MWL is the molecular weight of the ligand in Da RL is the immobilization level in RU SM is the molar stoichiometry (assume 1:1) Rmax=300/47,500×10,000×1 Rmax=63 RU. Cell Viability Assay protocols

[3] = system: DLD1 cells (ATCC CCL-221); experiment: Cell viability assay (CellTiter-Glo), DLD1 cells; assay type: cell-based; conditions: Homo sapiens, DLD-1 cells, 48 h incubation, second value of the cell, read-out: Cell Viability (μM) DLD-1 (concentration that decreases cell viability by 50%)
Procedure: as §1
In the DLD1 cell assay, cells (ATCC CCL-221) are cultured in RPMI-1640 medium plus 10% foetal calf serum and 2 mM L-glutamine at 37° C., 5% CO2.

Structure (SMILES)	IC50 [1] [µM]	SPR Response Units [2] [Response Units]	IC50 [3] [µM]
CN1CCC(C(=O)NC[C@@H]2COc3ccc(OCc4ccccc4)cc3O2)CC1 [Example 1, 1-methyl-piperidine-4-carboxylic acid ((R)-7-benzyloxy-2,3-dihydro-benzo[1,4]dioxin-2-ylmethyl)-amide]	61	48	13
CN1CCN(Cc2ccc(C(=O)NC[C@@H]3COc4ccc(OCc5ccccc5)cc4O3)o2)CC1 [Example 2, 5-(4-Methyl-piperazin-1-ylmethyl)-furan-2-carboxylic acid ((R)-7-benzyloxy-2,3-dihydro-benzo[1,4]dioxin-2-ylmethyl)-amide]	43	224	10
O=C(NC[C@@H]1COc2ccc(OCc3ccccc3)cc2O1)c1ncco1 [Example 3, Oxazole-2-carboxylic acid ((R)-7-benzyloxy-2,3-dihydro-benzo[1,4]dioxin-2-ylmethyl)-amide]	> 100	12	20
CN1CCN(Cc2cnc(C(=O)NC[C@@H]3COc4ccc(OCc5ccccc5)cc4O3)o2)CC1 [Example 4, 5-(4-Methyl-piperazin-1-ylmethyl)-oxazole-2-carboxylic acid ((R)-7-benzyloxy-2,3-dihydro-benzo[1,4]dioxin-2-ylmethyl)-amide]	57	66	12
CN1CCN(Cc2cccc(C(=O)NC[C@@H]3COc4ccc(OCc5ccccc5)cc4O3)c2)CC1 [Example 7, N-((R)-7-Benzyloxy-2,3-dihydro-benzo[1,4]dioxin-2-ylmethyl)-3-(4-methyl-piperazin-1-ylmethyl)-benzamide]	19.2	–	10.5
CN1CCC(C(=O)NC[C@@H]2COc3ccc(OCc4ccc(Cl)cc4)cc3O2)CC1 [Example 18, 1-Methyl-piperidine-4-carboxylic acid [(R)-7-(4-chloro-benzyloxy)-2,3-dihydro-benzo[1,4]dioxin-2-ylmethyl]-amide]	10	61	5.4
COc1ccc(COc2ccc3c(c2)O[C@H](CNC(=O)c2ccc(CN4CCN(C)CC4)o2)CO3)cc1 [Example 22, 5-(4-Methyl-piperazin-1-ylmethyl)-furan-2-carboxylic acid [(R)-7-(4-methoxy-benzyloxy)-2,3-dihydro-benzo[1,4]dioxin-2-ylmethyl]-amide]	46	96	12
CN1CCN(Cc2ccc(C(=O)NC[C@@H]3COc4ccc(OCCc5ccccc5)cc4O3)o2)CC1 [Example 23, 5-(4-Methyl-piperazin-1-ylmethyl)-furan-2-carboxylic acid ((R)-7-phenethyloxy-2,3-dihydro-benzo[1,4]dioxin-2-ylmethyl)-amide]	35	86	3.5
O=C1CN(c2ccccn2)C(=O)N1C[C@@H]1COc2ccc(OCc3ccccc3)cc2O1.O=CO [Example 78, 3-((R)-7-Benzyloxy-2,3-dihydro-benzo[1,4]dioxin-2-ylmethyl)-1-pyridin-2-yl-imidazolidine-2,4-dione]	–	28	–

Second part, the compound after the results:

IC50 [1] [µM]	SPR Response Units [2] [Response Units]	IC50 [3] [µM]	Structure (SMILES)
49	226	2.5	CN1CCN(Cc2ccc(C(=O)NC[C@@H]3COc4ccc(OCc5ccc(Cl)cc5)cc4O3)o2)CC1 [Example 24, 5-(4-Methyl-piperazin-1-ylmethyl)-furan-2-carboxylic acid [(R)-7-(4-chloro-benzyloxy)-2,3-dihydro-benzo[1,4]dioxin-2-ylmethyl]-amide]
33.2	44	5.6	CN1CCC(C(=O)NC[C@@H]2COc3ccc(OCc4ccc(F)c(F)c4)cc3O2)CC1 [Example 27, 1-Methyl-piperidine-4-carboxylic acid [(R)-7-(3,4-difluoro-benzyloxy)-2,3-dihydro-benzo[1,4]dioxin-2-ylmethyl]-amide]
> 100	–	18	c1ccc(COc2ccc3c(c2)O[C@H](CNCC2CCOCC2)CO3)cc1 [Example 33, ((R)-7-Benzyloxy-2,3-dihydro-benzo[1,4]dioxin-2-ylmethyl)-(tetrahydro-pyran-4-ylmethyl)-amine]
8	–	5	CN1CCN(c2cccc(CNC[C@@H]3COc4ccc(OCc5ccccc5)cc4O3)c2)CC1 [Example 53, ((R)-7-Benzyloxy-2,3-dihydro-benzo[1,4]dioxin-2-ylmethyl)-[3-(4-methyl-piperazin-1-yl)-benzyl]-amine]
14.7	–	13.8	c1ccc(COc2ccc3c(c2)O[C@H](CNCC2CCCNC2)CO3)cc1 (stereo partly drawn) [Example 58, ((R)-7-Benzyloxy-2,3-dihydro-benzo[1,4]dioxin-2-ylmethyl)-piperidin-3-ylmethyl-amine]
–	12	–	O=C(NCc1ccnc(F)c1)C1COc2ccc(OCc3ccccc3)cc2O1 (centres unmarked) [Example 72, 7-Benzyloxy-2,3-dihydro-benzo[1,4]dioxine-2-carboxylic acid (2-fluoro-pyridin-4-ylmethyl)-amide]
–	33	–	O=C(NCc1cn[nH]c1)C1COc2ccc(OCc3ccccc3)cc2O1 (centres unmarked) [Example 73, 7-Benzyloxy-2,3-dihydro-benzo[1,4]dioxine-2-carboxylic acid (1H-pyrazol-4-ylmethyl)-amide]
–	51	–	N[C@H]1CC[C@@H](NC(=O)C2COc3ccc(OCc4ccccc4)cc3O2)CC1 (some centres unmarked) [Example 75, 7-Benzyloxy-2,3-dihydro-benzo[1,4]dioxine-2-carboxylic acid (4-amino-cyclohexyl)-amide]
–	48	–	O=C(NCC1COCCN1)C1COc2ccc(OCc3ccccc3)cc2O1 (centres unmarked) [Example 76, 7-Benzyloxy-2,3-dihydro-benzo[1,4]dioxine-2-carboxylic acid (morpholin-3-ylmethyl)-amide]
–	93	–	CN1CCC(NC(=O)NC[C@@H]2COc3ccc(OCc4ccccc4)cc3O2)CC1 [Example 80, 1-(7-benzyloxy-2,3-dihydro-benzo[1,4]dioxin-2-ylmethyl)-3-(1-methyl-piperidin-4-yl)-urea]
–	75	–	CN1CCC(N(C)C(=O)NC[C@@H]2COc3ccc(OCc4ccccc4)cc3O2)CC1 [Example 81, 3-(7-Benzyloxy-2,3-dihydro-benzo[1,4]dioxin-2-ylmethyl)-1-methyl-1-(1-methyl-piperidin-4-yl)-urea]
–	63	–	CN1CCN(C(=O)NC[C@@H]2COc3ccc(OCc4ccccc4)cc3O2)CC1 [Example 82, 4-methyl-piperazine-1-carboxylic acid ((R)-7-benzyloxy-2,3-dihydro-benzo[1,4]dioxin-2-ylmethyl)-amide]
–	28	–	NC[C@@H]1COc2ccc(OCc3ccccc3)cc2O1 [Example 86, C—((R)-7-Benzyloxy-2,3-dihydro-benzo[1,4]dioxin-2-yl)-methylamine]
